Patent US6924283B2, “4-thioxo-4,7-dihydro-thieno[2,3-b]pyridine-5-carbothioamides as antiviral agents” (Pfizer, priority 2001, dated 2005)

Assays:
Assay type in all cases: biochemical
HCMV polymerase = target: T1, HCMV polymerase (Human cytomegalovirus, UniProt P08546); assay: HCMV polymerase scintillation proximity assay (modified version); details: modified SPA assay, compounds diluted in 100% DMSO, 4.5 mM DTT
T1 construct: made in house; host or cells: recombinant baculovirus-infected SF-9 cells
T1 sequence (P08546 whole entry): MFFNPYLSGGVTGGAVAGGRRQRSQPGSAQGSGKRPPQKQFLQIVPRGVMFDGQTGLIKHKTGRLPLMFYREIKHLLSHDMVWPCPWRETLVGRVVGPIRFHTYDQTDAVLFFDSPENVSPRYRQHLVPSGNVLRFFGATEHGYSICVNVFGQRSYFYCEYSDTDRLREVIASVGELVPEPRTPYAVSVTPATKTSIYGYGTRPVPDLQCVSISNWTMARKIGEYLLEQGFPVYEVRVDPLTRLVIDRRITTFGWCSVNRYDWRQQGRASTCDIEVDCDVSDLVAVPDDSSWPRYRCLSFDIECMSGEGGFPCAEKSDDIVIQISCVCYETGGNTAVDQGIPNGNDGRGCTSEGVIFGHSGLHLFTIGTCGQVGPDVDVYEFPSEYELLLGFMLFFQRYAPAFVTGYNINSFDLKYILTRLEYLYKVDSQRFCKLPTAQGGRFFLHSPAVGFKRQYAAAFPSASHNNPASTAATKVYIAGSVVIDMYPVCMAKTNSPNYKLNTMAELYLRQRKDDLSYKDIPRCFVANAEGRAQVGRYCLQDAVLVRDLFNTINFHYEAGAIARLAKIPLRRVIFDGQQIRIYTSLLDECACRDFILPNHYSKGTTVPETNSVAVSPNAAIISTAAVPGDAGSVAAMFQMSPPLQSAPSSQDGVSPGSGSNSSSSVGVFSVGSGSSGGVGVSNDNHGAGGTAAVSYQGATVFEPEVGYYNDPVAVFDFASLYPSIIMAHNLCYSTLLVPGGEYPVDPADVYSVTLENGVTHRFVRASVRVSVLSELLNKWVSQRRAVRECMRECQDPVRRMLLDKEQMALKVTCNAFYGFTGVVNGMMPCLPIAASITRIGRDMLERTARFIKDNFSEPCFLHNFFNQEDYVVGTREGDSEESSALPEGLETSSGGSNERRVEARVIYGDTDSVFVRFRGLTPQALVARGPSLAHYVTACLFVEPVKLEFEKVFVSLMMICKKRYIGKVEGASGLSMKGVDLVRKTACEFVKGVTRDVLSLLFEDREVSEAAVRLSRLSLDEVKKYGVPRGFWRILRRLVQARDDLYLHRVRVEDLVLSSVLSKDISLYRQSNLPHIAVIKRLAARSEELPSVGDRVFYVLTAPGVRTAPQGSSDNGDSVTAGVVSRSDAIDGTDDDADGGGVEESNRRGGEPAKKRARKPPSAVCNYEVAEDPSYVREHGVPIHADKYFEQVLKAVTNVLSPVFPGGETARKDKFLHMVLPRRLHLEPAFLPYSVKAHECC
Description: The HCMV polymerase assay is performed using a scintillation proximity assay (SPA) as described in several references, such as N. D. Cook, et al., Pharmaceutical Manufacturing International, pages 49-53 (1992); K. Takeuchi, Laboratory Practice, September issue (1992); U.S. Pat. No. 4,568,649 (1986); which are incorporated by reference herein. Reactions are performed in 96-well plates. The assay is conducted in 100 μl volume with 5.4 mM HEPES (pH 7.5), 11.7 mM KCl, 4.5 mM MgCl2, 0.36 mg/ml BSA, and 90 nM ^3H-dTTP. Assays are run with and without CHAPS, (3-[(3-cholamidopropyl)-dimethylammonio]-1-propane-sulfonate) at a final concentration of 2 mM. HCMV polymerase is diluted in enzyme dilution buffer containing 50% glycerol, 250 mM NaCl, 10 mM HEPES (pH 7.5), 100 μg/ml BSA, and 0.01% sodium azide. […] Plates are incubated 10 min. at 37° C., then equilibrated to room temperature, and counted on a Packard Topcount. Linear regressions are performed and IC50's are calculated using computer software.
A modified version of the above HCMV polymerase assay is performed as described above, but with the following changes: Compounds are diluted in 100% DMSO until final dilution into assay buffer. […] In Table 1, the term “nd” refers to activity data not determined.

VZV polymerase = VZV polymerase (Varicella-zoster virus, UniProt P09252); assay: VZV polymerase assay (Table 1)
VZV polymerase, sequence (P09252 whole entry): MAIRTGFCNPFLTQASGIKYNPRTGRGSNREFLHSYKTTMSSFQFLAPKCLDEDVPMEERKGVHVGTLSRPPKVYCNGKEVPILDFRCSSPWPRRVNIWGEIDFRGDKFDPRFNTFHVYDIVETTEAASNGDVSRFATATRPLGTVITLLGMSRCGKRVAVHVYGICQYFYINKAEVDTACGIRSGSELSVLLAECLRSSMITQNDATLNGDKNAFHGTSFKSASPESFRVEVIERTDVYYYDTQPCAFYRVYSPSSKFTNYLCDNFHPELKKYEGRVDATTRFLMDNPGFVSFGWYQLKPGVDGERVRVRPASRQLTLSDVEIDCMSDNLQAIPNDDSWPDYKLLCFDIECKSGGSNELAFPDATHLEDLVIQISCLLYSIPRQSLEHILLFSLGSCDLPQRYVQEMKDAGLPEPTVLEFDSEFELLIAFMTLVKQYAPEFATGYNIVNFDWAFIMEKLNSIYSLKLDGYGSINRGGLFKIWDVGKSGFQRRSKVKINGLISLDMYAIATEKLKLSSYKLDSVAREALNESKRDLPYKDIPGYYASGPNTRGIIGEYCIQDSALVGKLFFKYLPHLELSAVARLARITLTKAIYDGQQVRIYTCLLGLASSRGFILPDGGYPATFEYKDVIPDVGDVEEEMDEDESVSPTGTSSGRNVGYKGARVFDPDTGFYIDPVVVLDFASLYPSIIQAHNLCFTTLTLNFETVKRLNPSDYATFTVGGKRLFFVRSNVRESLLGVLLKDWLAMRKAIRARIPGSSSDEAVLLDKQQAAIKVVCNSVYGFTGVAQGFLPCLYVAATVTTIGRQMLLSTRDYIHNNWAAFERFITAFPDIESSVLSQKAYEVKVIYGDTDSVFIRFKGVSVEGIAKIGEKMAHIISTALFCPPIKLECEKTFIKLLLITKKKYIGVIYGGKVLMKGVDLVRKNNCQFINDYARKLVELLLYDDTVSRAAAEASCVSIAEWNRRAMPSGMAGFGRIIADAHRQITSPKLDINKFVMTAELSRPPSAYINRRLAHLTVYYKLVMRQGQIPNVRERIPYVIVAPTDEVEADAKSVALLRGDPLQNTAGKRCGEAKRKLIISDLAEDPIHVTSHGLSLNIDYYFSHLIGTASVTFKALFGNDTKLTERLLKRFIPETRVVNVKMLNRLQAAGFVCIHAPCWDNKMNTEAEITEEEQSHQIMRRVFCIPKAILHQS

HSV polymerase = HSV polymerase (Human herpesvirus 1, UniProt P04293); assay: HSV polymerase assay (Table 1)
HSV polymerase, sequence (P04293 whole entry): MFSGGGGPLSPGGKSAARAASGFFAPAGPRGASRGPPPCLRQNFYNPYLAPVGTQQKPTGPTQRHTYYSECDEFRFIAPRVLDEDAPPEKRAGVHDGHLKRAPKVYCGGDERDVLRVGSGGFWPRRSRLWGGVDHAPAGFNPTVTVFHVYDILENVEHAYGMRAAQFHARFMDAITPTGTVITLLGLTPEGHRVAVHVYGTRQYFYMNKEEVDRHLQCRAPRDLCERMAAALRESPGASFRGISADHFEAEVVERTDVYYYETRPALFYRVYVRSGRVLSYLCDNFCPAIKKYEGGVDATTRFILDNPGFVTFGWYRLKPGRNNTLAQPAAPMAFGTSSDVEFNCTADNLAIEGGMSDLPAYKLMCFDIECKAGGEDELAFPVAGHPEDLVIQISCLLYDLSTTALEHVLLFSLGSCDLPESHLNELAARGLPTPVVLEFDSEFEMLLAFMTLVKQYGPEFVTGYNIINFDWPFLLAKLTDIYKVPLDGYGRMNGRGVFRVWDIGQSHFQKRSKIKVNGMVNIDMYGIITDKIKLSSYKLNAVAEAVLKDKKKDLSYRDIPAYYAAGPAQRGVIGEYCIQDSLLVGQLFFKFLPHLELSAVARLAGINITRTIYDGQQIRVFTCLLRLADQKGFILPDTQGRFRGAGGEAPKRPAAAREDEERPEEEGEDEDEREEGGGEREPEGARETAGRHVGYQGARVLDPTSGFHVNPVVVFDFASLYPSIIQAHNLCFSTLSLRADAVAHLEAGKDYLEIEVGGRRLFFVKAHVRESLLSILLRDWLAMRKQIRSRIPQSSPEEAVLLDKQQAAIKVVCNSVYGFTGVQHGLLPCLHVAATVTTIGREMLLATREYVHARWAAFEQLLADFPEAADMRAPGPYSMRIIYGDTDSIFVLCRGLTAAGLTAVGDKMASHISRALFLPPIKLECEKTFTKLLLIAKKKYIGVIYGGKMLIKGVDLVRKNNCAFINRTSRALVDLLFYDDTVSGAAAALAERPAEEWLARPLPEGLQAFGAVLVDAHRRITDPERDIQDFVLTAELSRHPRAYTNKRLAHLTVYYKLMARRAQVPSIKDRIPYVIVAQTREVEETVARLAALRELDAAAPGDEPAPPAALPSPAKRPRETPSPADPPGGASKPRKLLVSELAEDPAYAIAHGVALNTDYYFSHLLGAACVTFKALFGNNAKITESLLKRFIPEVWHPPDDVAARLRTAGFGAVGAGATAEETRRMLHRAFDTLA

## Cn1cc(C(=S)NCc2ccc(Cl)cc2)c(=S)c2cc(CN3CCOCC3)sc21 [Example 1, N-(4-Chlorobenzyl)-7-methyl-2-(4-morpholinylmethyl)-4-thioxo-4,7-dihydrothieno[2,3-b]pyridine-5-carbothioamide]
HCMV polymerase
  IC50: 910 nM
VZV polymerase
  IC50: 130 nM
HSV polymerase
  IC50: 360 nM
